Laboratory results taken from patent US9650395B2, “Antibacterial compounds and methods for use” (PTC Therapeutics, Inc., priority 2011, dated 2017).
Values after ≈ are worked out from the molar mass of the structure shown. Counter-ions that a name gives are not always drawn.

Experiments:
[1] = system: Neisseria meningitidis (N. meningitidis) 13090; test: Antibacterial activity, MIC, N. meningitidis 13090; format: cell-based; conditions: Neisseria meningitidis; N. meningitidis 13090; read-out: MIC 13090
[2] = system: Pseudomonas aeruginosa (P. aeruginosa) 27853; test: Antibacterial activity, MIC, P. aeruginosa 27853; format: cell-based; conditions: Pseudomonas aeruginosa, P. aeruginosa 27853; read-out: MIC 27853
Text: (§1) The antibacterial activity from a microbroth dilution method may be presented as the minimum inhibitory concentration (MIC in […]). The MIC value is the lowest concentration of a drug which prevents macroscopically visible bacterial growth under test conditions.
Antibacterial activity of test compounds against the Gram-negative bacterium Pseudomonas aeruginosa (P. aeruginosa) 27853 is shown in Table 5.

[3] = system: resistant K. pneumoniae MXX1232 (MDR clinical isolate); test: Antibacterial activity, MIC, resistant K. pneumoniae MXX1232; format: cell-based, Klebsiella pneumoniae; conditions: Klebsiella pneumoniae; resistant K. pneumoniae MMX1232, MDR clinical isolate; read-out: MIC MMX1232
[4] = system: Klebsiella pneumoniae (K. pneumoniae) 35657; test: Antibacterial activity, MIC, K. pneumoniae 35657; format: cell-based; conditions: Klebsiella pneumoniae
[5] = system: control Gram-negative E. coli 25922 strain; test: Antibacterial activity, microbroth dilution MIC, E. coli 25922; format: cell-based, Escherichia coli; conditions: Escherichia coli; E. coli 25922, microbroth dilution; read-out: MIC, 25922
[6] = system: Gram-positive Staphylococcus aureus (S. aureus) 29213; test: Antibacterial activity, microbroth dilution MIC, S. aureus 29213; format: cell-based; conditions: Staphylococcus aureus; S. aureus 29213, microbroth dilution; read-out: MIC, 29213
[7] = system: Moraxella catarrhalis (M. catarrhalis) 25238; test: Antibacterial activity, MIC, M. catarrhalis 25238; format: cell-based; conditions: Moraxella catarrhalis, M. catarrhalis 25238; read-out: MIC 25238
[8] = system: Acinetobacter baumannii (A. baumannii) BAA747; test: Antibacterial activity, MIC, A. baumannii BAA747; format: cell-based; conditions: Acinetobacter baumannii; A. baumannii BAA747; read-out: MIC BAA747
[9] = system: resistant A. baumannii MXX2240 (MDR clinical isolate); test: Antibacterial activity, MIC, resistant A. baumannii MXX2240; format: cell-based, Acinetobacter baumannii; conditions: Acinetobacter baumannii, resistant A. baumannii MMX2240, MDR clinical isolate; read-out: MIC MMX2240
[10] = system: E. coli ELZ4251 (MDR clinical isolate); test: Antibacterial activity, MIC, MDR E. coli ELZ4251; format: cell-based, Escherichia coli; conditions: Escherichia coli, E. coli ELZ4251, MDR clinical isolate; read-out: MIC ELZ4251
[11] = system: quinolone resistant E. coli LZ3111; test: Antibacterial activity, MIC, quinolone resistant E. coli LZ3111; format: cell-based, Escherichia coli; conditions: Escherichia coli, read-out: MIC, LZ3111
Text: as §1
Mutations in these regions are known to confer a high level resistance to the quinolone class of antibiotics.

[12] = system: super sensitive Gram-negative Escherichia coli (E. coli) BAS849; test: Antibacterial activity, microbroth dilution MIC, E. coli BAS849; format: cell-based; conditions: Escherichia coli; E. coli BAS849, microbroth dilution; read-out: MIC, BAS849
[13] = system: E. coli ELZ4000 (MDR clinical isolate); test: Antibacterial activity, MIC, MDR E. coli ELZ4000; format: cell-based, Escherichia coli; conditions: Escherichia coli; E. coli ELZ4000, MDR clinical isolate; read-out: MIC ELZ4000
[14] = system: Haemophilus influenzae (H. influenzae) 49247; test: Antibacterial activity, MIC, H. influenzae 49247; format: cell-based; conditions: Haemophilus influenzae; H. influenzae 49247; read-out: MIC 49247
How it was run: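 Antibacterial activity against the Gram-negative organism Haemophilus influenzae strain 49247 was measured by microbroth dilution. The minimum inhibitory concentration (MIC) was taken as the lowest drug concentration that stopped bacterial growth from being visible to the naked eye under the test conditions.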

| SMILES | MIC [1] | MIC [2] | MIC [3] | MIC [4] | MIC [5] | MIC [6] | MIC [7] | MIC [8] | MIC [9] | MIC [10] | MIC [11] | MIC [12] | MIC [13] | MIC [14] |
| --- | --- | --- | --- | --- | --- | --- | --- | --- | --- | --- | --- | --- | --- | --- |
| CCc1c(-c2ccc(N3C[C@H]4CCC[C@@H](N(C)C)[C@H]4C3)cc2)[nH]c(=O)c(C(=O)O)c1O.Cl [Cpd 261, 6-{4-[(3aR,4R,7aS)-4-(dimethylamino)octahydro-2H-isoindol-2-yl]phenyl}-5-ethyl-4-hydroxy-2-oxo-1,2-dihydropyridine-3-carboxylic acid hydrochloride] | < 1 µg/mL | 12.5 to 150 µg/mL | 12.5 to 150 µg/mL | 12.5 to 150 µg/mL | 3.5 to 12.5 µg/mL | 3.5 to 12.5 µg/mL | 3.5 to 12.5 µg/mL | 12.5 to 150 µg/mL | 12.5 to 150 µg/mL | 3.5 to 12.5 µg/mL | 1 to 3.5 µg/mL | < 1 µg/mL | 12.5 to 150 µg/mL | 12.5 to 150 µg/mL |
| Cc1c(-c2ccc(N(C)C)cc2)[nH]c(=O)c(C(=O)O)c1O [Cpd 5, 6-[4-(dimethylamino)phenyl]-4-hydroxy-5-methyl-2-oxo-1,2-dihydropyridine-3-carboxylic acid] | < 1 µg/mL | 12.5 to 150 µg/mL (≈ 43.4 to 520 µM) | 12.5 to 150 µg/mL (≈ 43.4 to 520 µM) | 12.5 to 150 µg/mL (≈ 43.4 to 520 µM) | 12.5 to 150 µg/mL (≈ 43.4 to 520 µM) | 12.5 to 150 µg/mL (≈ 43.4 to 520 µM) | 1 to 3.5 µg/mL (≈ 3.47 to 12.1 µM) | 3.5 to 12.5 µg/mL (≈ 12.1 to 43.4 µM) | < 1 µg/mL | 1 to 3.5 µg/mL (≈ 3.47 to 12.1 µM) | 1 to 3.5 µg/mL (≈ 3.47 to 12.1 µM) | < 1 µg/mL | 3.5 to 12.5 µg/mL (≈ 12.1 to 43.4 µM) | 1 to 3.5 µg/mL (≈ 3.47 to 12.1 µM) |
| CCc1c(-c2ccc(N3C[C@@H]4[C@H](C3)[C@H]4NC)cc2)[nH]c(=O)c(C(=O)O)c1O [Cpd 270, 5-ethyl-4-hydroxy-6-{4-[(1R,5S,6s)-6-(methylamino)-3-azabicyclo[3.1.0]hex-3-yl]phenyl}-2-oxo-1,2-dihydropyridine-3-carboxylic acid hydrochloride] | < 1 µg/mL | 1 to 3.5 µg/mL | 12.5 to 150 µg/mL | < 1 µg/mL | < 1 µg/mL | 3.5 to 12.5 µg/mL | < 1 µg/mL | < 1 µg/mL | 12.5 to 150 µg/mL | 3.5 to 12.5 µg/mL | 1 to 3.5 µg/mL | < 1 µg/mL | 12.5 to 150 µg/mL | < 1 µg/mL |
| CCc1c(-c2ccc(N3CC4CCCNC4C3)cc2)[nH]c(=O)c(C(=O)O)c1O.Cl (stereo not drawn) [Cpd 272, 5-ethyl-4-hydroxy-6-[4-(octahydro-6H-pyrrolo[3,4-b]pyridin-6-yl)phenyl]-2-oxo-1,2-dihydropyridine-3-carboxylic acid hydrochloride] | < 1 µg/mL | 3.5 to 12.5 µg/mL | 12.5 to 150 µg/mL | < 1 µg/mL | < 1 µg/mL | 3.5 to 12.5 µg/mL | < 1 µg/mL | 1 to 3.5 µg/mL | 3.5 to 12.5 µg/mL | 1 to 3.5 µg/mL | < 1 µg/mL | < 1 µg/mL | 3.5 to 12.5 µg/mL | < 1 µg/mL |
| CCc1c(-c2ccc(N3CC4CC4(N)C3)cc2)[nH]c(=O)c(C(=O)O)c1O.Cl (stereo not drawn) [Cpd 277, 6-[4-(1-amino-3-azabicyclo[3.1.0]hex-3-yl)phenyl]-5-ethyl-4-hydroxy-2-oxo-1,2-dihydropyridine-3-carboxylic acid hydrochloride] | < 1 µg/mL | 12.5 to 150 µg/mL | 12.5 to 150 µg/mL | 1 to 3.5 µg/mL | 1 to 3.5 µg/mL | 3.5 to 12.5 µg/mL | 1 to 3.5 µg/mL | 3.5 to 12.5 µg/mL | 12.5 to 150 µg/mL | 12.5 to 150 µg/mL | 3.5 to 12.5 µg/mL | < 1 µg/mL | 12.5 to 150 µg/mL | 1 to 3.5 µg/mL |
| CCc1c(-c2ccc(N3C[C@H]4CC[C@@H](N)[C@H]4C3)cc2)[nH]c(=O)c(C(=O)O)c1O.Cl [Cpd 264, 6-{4-[(3aR,4R,6aS)-4-aminohexahydrocyclopenta[c]pyrrol-2(1H)-yl]phenyl}-5-ethyl-4-hydroxy-2-oxo-1,2-dihydropyridine-3-carboxylic acid hydrochloride] | < 1 µg/mL | 12.5 to 150 µg/mL | 12.5 to 150 µg/mL | 3.5 to 12.5 µg/mL | 1 to 3.5 µg/mL | 3.5 to 12.5 µg/mL | 1 to 3.5 µg/mL | 12.5 to 150 µg/mL | 12.5 to 150 µg/mL | 3.5 to 12.5 µg/mL | 1 to 3.5 µg/mL | < 1 µg/mL | 12.5 to 150 µg/mL | 3.5 to 12.5 µg/mL |
| CCc1cc(C(=O)O)c(=O)[nH]c1-c1ccc(N(C)C)nc1 [Cpd 86, 6-[6-(dimethylamino)pyridin-3-yl]-5-ethyl-2-oxo-1,2-dihydropyridine-3-carboxylic acid] | < 1 µg/mL | 12.5 to 150 µg/mL (≈ 43.5 to 522 µM) | 12.5 to 150 µg/mL (≈ 43.5 to 522 µM) | 12.5 to 150 µg/mL (≈ 43.5 to 522 µM) | 12.5 to 150 µg/mL (≈ 43.5 to 522 µM) | 12.5 to 150 µg/mL (≈ 43.5 to 522 µM) | 1 to 3.5 µg/mL (≈ 3.48 to 12.2 µM) | 12.5 to 150 µg/mL (≈ 43.5 to 522 µM) | 12.5 to 150 µg/mL (≈ 43.5 to 522 µM) | – | 12.5 to 150 µg/mL (≈ 43.5 to 522 µM) | 1 to 3.5 µg/mL (≈ 3.48 to 12.2 µM) | – | < 1 µg/mL |
| CCc1c(-c2ccc(N3C[C@H]4CCC[C@H](NC)[C@H]4C3)cc2)[nH]c(=O)c(C(=O)O)c1O.Cl [Cpd 268, 5-ethyl-4-hydroxy-6-{4-[(3aR,4S,7aS)-4-(methylamino)octahydro-2H-isoindol-2-yl]phenyl}-2-oxo-1,2-dihydropyridine-3-carboxylic acid hydrochloride] | 3.5 to 12.5 µg/mL | 12.5 to 150 µg/mL | 12.5 to 150 µg/mL | 12.5 to 150 µg/mL | 3.5 to 12.5 µg/mL | 3.5 to 12.5 µg/mL | 3.5 to 12.5 µg/mL | 12.5 to 150 µg/mL | 12.5 to 150 µg/mL | 3.5 to 12.5 µg/mL | 1 to 3.5 µg/mL | 1 to 3.5 µg/mL | 12.5 to 150 µg/mL | 12.5 to 150 µg/mL |
| CCc1c(-c2ccc(N3C[C@H]4CC[C@@H](N(C)C)[C@H]4C3)cc2)[nH]c(=O)c(C(=O)O)c1O.Cl [Cpd 263, 6-{4-[(3aR,4R,6aS)-4-(dimethylamino)hexahydrocyclopenta[c]pyrrol-2(1H)-yl]phenyl}-5-ethyl-4-hydroxy-2-oxo-1,2-dihydropyridine-3-carboxylic acid hydrochloride] | 1 to 3.5 µg/mL | 12.5 to 150 µg/mL | 12.5 to 150 µg/mL | 3.5 to 12.5 µg/mL | 1 to 3.5 µg/mL | 12.5 to 150 µg/mL | 1 to 3.5 µg/mL | 3.5 to 12.5 µg/mL | 12.5 to 150 µg/mL | 12.5 to 150 µg/mL | 3.5 to 12.5 µg/mL | < 1 µg/mL | 12.5 to 150 µg/mL | 3.5 to 12.5 µg/mL |
| CCc1c(-c2ccc(N3C[C@H]4CCN[C@H]4C3)cc2)[nH]c(=O)c(C(=O)O)c1O.Cl [Cpd 246, 5-ethyl-6-{4-[(3aR,6aR)-hexahydropyrrolo[3,4-b]pyrrol-5(1H)-yl]phenyl}-4-hydroxy-2-oxo-1,2-dihydropyridine-3-carboxylic acid hydrochloride] | 1 to 3.5 µg/mL | 12.5 to 150 µg/mL | 12.5 to 150 µg/mL | 1 to 3.5 µg/mL | 1 to 3.5 µg/mL | 12.5 to 150 µg/mL | 3.5 to 12.5 µg/mL | 12.5 to 150 µg/mL | 12.5 to 150 µg/mL | 3.5 to 12.5 µg/mL | – | < 1 µg/mL | 12.5 to 150 µg/mL | 1 to 3.5 µg/mL |
| CCc1c(-c2ccc(N(C)C)cc2)[nH]c(=O)c(C(=O)O)c1O [Cpd 90, 6-[4-(dimethylamino)phenyl]-5-ethyl-4-hydroxy-2-oxo-1,2-dihydropyridine-3-carboxylic acid] | < 1 µg/mL | 12.5 to 150 µg/mL (≈ 41.3 to 496 µM) | 12.5 to 150 µg/mL (≈ 41.3 to 496 µM) | 3.5 to 12.5 µg/mL (≈ 11.6 to 41.3 µM) | 1 to 3.5 µg/mL (≈ 3.31 to 11.6 µM) | 3.5 to 12.5 µg/mL (≈ 11.6 to 41.3 µM) | < 1 µg/mL | 1 to 3.5 µg/mL (≈ 3.31 to 11.6 µM) | 3.5 to 12.5 µg/mL (≈ 11.6 to 41.3 µM) | 12.5 to 150 µg/mL (≈ 41.3 to 496 µM) | 12.5 to 150 µg/mL (≈ 41.3 to 496 µM) | < 1 µg/mL | 12.5 to 150 µg/mL (≈ 41.3 to 496 µM) | – |
